Results published in paper PMC12371494, “Discovery of YTHDF2 Ligands by Fragment-Based Design” (ACS Bio & Med Chem Au, 2025).
pIC50: −log10 of the molar value.

Columns and labels:
GST-YTHDF2 = biological target: T1, GST-YTHDF2 (Homo sapiens, UniProt Q9Y5A9); test: HTRF-based binding assay, competition with m6A-oligoRNA, DF2; details: for Single-dose residual signal at 100 µM, DF2: HTRF, 100 µM compound, normalized; for LE (ligand efficiency, DF2): LE = -RT ln IC50/HAC from HTRF IC50; for pIC50: dose-response, competitor m6A-oligoRNA, read-out: DF2 IC50 (HTRF assay); for Improvement of HTRF IC50 compared to fragment 14: HTRF DF2
T1 construct: made in house
T1 sequence (Q9Y5A9 1-579): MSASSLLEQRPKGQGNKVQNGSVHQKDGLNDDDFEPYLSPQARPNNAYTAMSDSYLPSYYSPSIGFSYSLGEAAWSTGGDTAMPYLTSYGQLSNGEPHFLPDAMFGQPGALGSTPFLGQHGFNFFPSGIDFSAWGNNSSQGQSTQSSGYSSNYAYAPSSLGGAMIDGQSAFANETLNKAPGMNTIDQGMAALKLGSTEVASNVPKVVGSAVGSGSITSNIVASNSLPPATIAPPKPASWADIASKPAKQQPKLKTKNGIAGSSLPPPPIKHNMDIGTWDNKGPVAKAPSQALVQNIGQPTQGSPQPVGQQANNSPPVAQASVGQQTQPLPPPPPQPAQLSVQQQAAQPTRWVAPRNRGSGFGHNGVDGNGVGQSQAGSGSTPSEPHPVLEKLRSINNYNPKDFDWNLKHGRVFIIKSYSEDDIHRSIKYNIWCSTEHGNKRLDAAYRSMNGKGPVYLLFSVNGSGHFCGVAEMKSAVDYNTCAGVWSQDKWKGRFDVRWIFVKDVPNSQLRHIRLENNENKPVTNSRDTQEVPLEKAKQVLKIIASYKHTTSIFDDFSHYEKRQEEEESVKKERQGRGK

GST-YTHDF1 = biological target: T2, GST-YTHDF1 (Homo sapiens, UniProt Q9BYJ9); test: HTRF-based binding assay, DF1; details: for Single-dose residual signal at 100 µM, DF1: 100 µM compound, normalized; for pIC50: dose-response
T2 construct: made in house
T2 sequence (Q9BYJ9 1-559): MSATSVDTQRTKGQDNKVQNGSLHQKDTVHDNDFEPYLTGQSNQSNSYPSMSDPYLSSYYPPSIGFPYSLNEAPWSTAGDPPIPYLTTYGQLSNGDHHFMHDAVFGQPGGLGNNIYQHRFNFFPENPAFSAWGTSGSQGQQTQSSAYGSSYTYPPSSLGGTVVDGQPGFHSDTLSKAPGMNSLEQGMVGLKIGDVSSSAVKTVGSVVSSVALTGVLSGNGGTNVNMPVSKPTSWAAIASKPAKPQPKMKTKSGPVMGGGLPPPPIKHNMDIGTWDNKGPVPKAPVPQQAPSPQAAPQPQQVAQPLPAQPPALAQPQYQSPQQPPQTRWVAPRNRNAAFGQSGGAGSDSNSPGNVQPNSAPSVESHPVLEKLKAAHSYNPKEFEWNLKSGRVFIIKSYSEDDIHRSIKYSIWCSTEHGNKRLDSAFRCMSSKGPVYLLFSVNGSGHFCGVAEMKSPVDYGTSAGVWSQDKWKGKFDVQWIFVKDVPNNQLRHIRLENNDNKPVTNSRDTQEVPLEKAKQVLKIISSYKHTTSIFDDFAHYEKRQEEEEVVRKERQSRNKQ
Procedure: (§1) The HTRF-based assay was employed to evaluate the selectivity of the series against other DF proteins.
(§2) A dose–response experiment on DF1 and DF3 was conducted for compounds 17, 18, 23, and 27 (Figure S5). Compounds 17, 18, and 27 are active on three DF proteins. […] In contrast, compound 23 is selective for DF2, with residual signals (at the highest employed concentration of 62.5 μM) of 51 and 87% for DF1 and DF3, respectively.
(§3) GST-YTHDC1, GST-YTHDF1, GST-YTHDF2, and GST-YTHDF3 were purified as previously reported. The HTRF assay was assembled as detailed in ref with the only difference being that the starting concentration of the dose–response experiments used for the IC50 determination was variated dependently from the tested compound. The same protocol was applied to the four proteins. The competitive inhibition data of GST-YTHDF1 (single dose experiment at 100 μM compound concentration and dose–response curves), GST-YTHDF3 (single dose experiment at 100 μM compound concentration and dose–response curves), and GST-YTHDF2 (single dose experiment at 100 μM compound concentration) were normalized as described in ref to mitigate interference. The signal was measured as described in ref .

GST-YTHDF3 = biological target: T3, GST-YTHDF3 (Homo sapiens, UniProt Q7Z739); test: HTRF-based binding assay, DF3; details: for Single-dose residual signal at 100 µM, DF3: 100 µM compound, normalized; for pIC50: dose-response
T3 construct: made in house
T3 sequence (Q7Z739 1-585): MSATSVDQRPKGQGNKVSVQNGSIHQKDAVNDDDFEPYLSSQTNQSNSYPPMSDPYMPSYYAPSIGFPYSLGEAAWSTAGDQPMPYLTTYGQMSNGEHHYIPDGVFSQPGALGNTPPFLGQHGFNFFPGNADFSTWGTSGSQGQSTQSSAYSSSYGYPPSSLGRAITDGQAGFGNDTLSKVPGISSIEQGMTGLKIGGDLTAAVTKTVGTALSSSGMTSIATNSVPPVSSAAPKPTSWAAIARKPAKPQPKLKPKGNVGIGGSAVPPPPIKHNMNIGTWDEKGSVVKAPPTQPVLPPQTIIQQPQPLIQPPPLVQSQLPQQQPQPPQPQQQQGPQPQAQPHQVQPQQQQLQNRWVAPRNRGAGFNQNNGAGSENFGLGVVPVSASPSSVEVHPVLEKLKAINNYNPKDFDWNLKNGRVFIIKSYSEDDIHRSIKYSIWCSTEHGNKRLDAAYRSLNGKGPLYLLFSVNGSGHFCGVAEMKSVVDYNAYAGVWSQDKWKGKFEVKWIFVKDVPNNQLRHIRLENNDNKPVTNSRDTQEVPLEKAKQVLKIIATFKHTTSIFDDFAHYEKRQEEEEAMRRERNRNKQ
Procedure: as §1, §2, §3

Structure (SMILES)	Single-dose residual signal at 100 µM, DF2 (GST-YTHDF2)	LE (ligand efficiency, DF2) (GST-YTHDF2)	pIC50 (GST-YTHDF2)	Single-dose residual signal at 100 µM, DF1 (GST-YTHDF1; HTRF)	Single-dose residual signal at 100 µM, DF3 (GST-YTHDF3; HTRF)	Improvement of HTRF IC50 compared to fragment 14 (GST-YTHDF2)	pIC50 (GST-YTHDF1)	pIC50 (GST-YTHDF3)	Potency for DF2 relative to 6-cyclopropyluracil (GST-YTHDF2; HTRF IC50 values)	Residual signal DF1 at highest concentration (GST-YTHDF1; HTRF, 62.5 μM compound)	Residual signal DF3 at highest concentration (GST-YTHDF3; HTRF, 62.5 μM compound)
O=c1[nH]c(=S)[nH]c2sccc12 [Compound 14]	8%	0.60 kcal/(mol HAC)	4.74	15%	23%						
COC(=O)c1ccc(-c2csc3[nH]c(=S)[nH]c(=O)c23)cc1 [Compound 17]	4%	0.35 kcal/(mol HAC)	5.33	7%	7%	3 fold	5.00	4.68			
O=C(O)c1ccc(-c2csc3[nH]c(=S)[nH]c(=O)c23)cc1 [Compound 18]	4%	0.36 kcal/(mol HAC)	5.27	3%	19%	3 fold	4.96	4.28			
O=c1[nH]c(=S)[nH]c2scc(-c3ccc(O)cc3)c12 [Compound 19]	5%	0.34 kcal/(mol HAC)	4.49	8%	13%						
CC(=O)c1sc2[nH]c(=S)[nH]c(=O)c2c1C [Compound 20]	3%	0.45 kcal/(mol HAC)	4.89	8%	12%						
CCOC(=O)c1sc2[nH]c(=S)[nH]c(=O)c2c1C [Compound 21]	5%	0.42 kcal/(mol HAC)	5.20	12%	10%						
Cc1c(C(=O)NCc2ccccc2)sc2[nH]c(=S)[nH]c(=O)c12 [Compound 22]	5%	0.31 kcal/(mol HAC)	5.00	17%	18%						
Cc1c(C(=O)NCc2cccnc2)sc2[nH]c(=S)[nH]c(=O)c12 [Compound 23]	9%	0.31 kcal/(mol HAC)	4.96	20%	33%		< 4.22	< 4.22	15 factor	51%	87%
Cc1c(C(=O)NCc2cccc(C(=O)O)c2)sc2[nH]c(=S)[nH]c(=O)c12 [Compound 24]	3%	0.26 kcal/(mol HAC)	4.70	5%	12%						
Cc1c(C(=O)NCCCC(=O)O)sc2[nH]c(=S)[nH]c(=O)c12 [Compound 25]	7%	0.32 kcal/(mol HAC)	4.85	6%	26%						
Cc1c(-c2ccc([N+](=O)[O-])cc2)sc2[nH]c(=S)[nH]c(=O)c12 [Compound 26]	7%	0.35 kcal/(mol HAC)	5.31	12%	15%	3- to 4 fold					
Cc1c(-c2ccc(N)cc2)sc2[nH]c(=S)[nH]c(=O)c12 [Compound 27]	0%	0.39 kcal/(mol HAC)	5.41	6%	5%	3- to 4 fold	4.89	4.30			
NC(=O)c1csc2[nH]c(=S)[nH]c(=O)c12 [Compound 31]	13%	0.47 kcal/(mol HAC)	4.85	27%	36%						

Next, values leading:

Single-dose residual signal at 100 µM, DF2 (GST-YTHDF2)	LE (ligand efficiency, DF2) (GST-YTHDF2)	pIC50 (GST-YTHDF2)	Single-dose residual signal at 100 µM, DF1 (GST-YTHDF1; HTRF)	Single-dose residual signal at 100 µM, DF3 (GST-YTHDF3; HTRF)	Improvement of HTRF IC50 compared to fragment 14 (GST-YTHDF2)	pIC50 (GST-YTHDF1)	pIC50 (GST-YTHDF3)	Potency for DF2 relative to 6-cyclopropyluracil (GST-YTHDF2; HTRF IC50 values)	Residual signal DF1 at highest concentration (GST-YTHDF1; HTRF, 62.5 μM compound)	Residual signal DF3 at highest concentration (GST-YTHDF3; HTRF, 62.5 μM compound)	Structure (SMILES)
4%		4.57	9%	8%							O=c1[nH]c(=S)[nH]c2scc(-c3ccc(Br)cc3)c12 [Compound S75]
6%		4.62	12%	12%							COc1ccc(-c2csc3[nH]c(=S)[nH]c(=O)c23)cc1 [Compound S76]
12%		4.48	32%	35%							O=c1[nH]c(=S)[nH]c2scc(C3CCCCC3)c12 [Compound S77]
13%		4.48	34%	35%							O=c1[nH]c(=S)[nH]c2sc(Cc3ccccc3)cc12 [Compound S85]
8%		4.21	16%	16%							CCOC(=O)c1csc2[nH]c(=S)[nH]c(=O)c12 [Compound S89]
14%		4.22	36%	34%							O=C(O)c1csc2[nH]c(=S)[nH]c(=O)c12 [Compound S90]
